Results from patent US10221160B2, “Metalloenzyme inhibitor compounds” (Mycovia Pharmaceuticals, Inc., priority 2012, dated 2019).
In brackets after ≈: the same amount, converted by molar mass.

Tested on: C. albicans
Assay: Minimum Inhibitory Concentration (MIC), CLSI M27-A2
Assay type: cell-based
Settings: Candida albicans, 48 h, about 50% growth reduction, approximately 48 h at 35 °C, read-out: Candida MIC
Procedure: A. Minimum Inhibitory Concentration (MIC) Compounds were assessed for their ability to inhibit the growth of common strains of fungus, C. albicans using a standardized procedure (CLSI M27-A2). Stock solutions of the test compounds and standards were prepared in DMSO at 1,600 μg/mL (C. albicans). Eleven, serial, one-half dilutions of compounds were prepared in 96-well plates in RPMI+MOPS. The assay concentration ranges were 8-0.001 μg/mL (C. albicans). Cell suspensions of C. albicans were prepared and added to each well at concentrations of approximately 3.7×10^3 colony-forming-units per milliliter (cfu/mL). All testing was in duplicate. The inoculated plates were incubated for approximately 48 h at 35±1° C. At the completion of incubation the wells of each plate were evaluated visually for the presence of fungal growth. […] For QC purposes C. krusei isolate ATCC 6258 (4.0×10^3 cfu/mL) was included in the VOR assay.

MIC [µg/mL] | Compound
≤ 0.016 | N#Cc1ccc(-c2ccc(C(F)(F)C(O)(Cn3cnnn3)c3ccc(F)cc3F)nc2)cc1 (stereo not drawn) [Example 1, 4-(6-(2-(2,4-Difluorophenyl)-1,1-difluoro-2-hydroxy-3-(1H-tetrazol-1-yl)propyl)pyridin-3-yl)benzonitrile]

Same assay, conditions: Candida albicans, rating scale, read-out: Candida MIC Rating

MIC [µg/mL] | Compound
< 0.5 | N#Cc1ccc(-c2ccc(C(F)(F)C(O)(Cn3cnnn3)c3ccc(F)cc3F)nc2)cc1 (stereo not drawn) [Example 1, 4-(6-(2-(2,4-Difluorophenyl)-1,1-difluoro-2-hydroxy-3-(1H-tetrazol-1-yl)propyl)pyridin-3-yl)benzonitrile]
< 0.5 | N#Cc1cccc(-c2ccc(C(F)(F)C(O)(Cn3cnnn3)c3ccc(F)cc3F)nc2)c1 (stereo not drawn) [Example 3, 3-(6-(2-(2,4-Difluorophenyl)-1,1-difluoro-2-hydroxy-3-(1H-tetrazol-1-yl)propyl)pyridin-3-yl)benzonitrile]
< 0.5 | CC(C)Oc1ccc(-c2ccc(C(F)(F)C(O)(Cn3cnnn3)c3ccc(F)cc3F)nc2)cc1 (stereo not drawn) [Example 4, 2-(2,4-Difluorophenyl)-1,1-difluoro-1-(5-(4-isopropoxyphenyl)pyridin-2-yl)-3-(1H-tetrazol-1-yl)propan-2-ol]
< 0.5 | OC(Cn1cnnn1)(c1ccc(F)cc1F)C(F)(F)c1ccc(-c2ccc(F)cc2)cn1 (stereo not drawn) [Example 5, 2-(2,4-Difluorophenyl)-1,1-difluoro-1-(5-(4-fluorophenyl)pyridin-2-yl)-3-(1H-tetrazol-1-yl)propan-2-ol]
< 0.5 | OC(Cn1cnnn1)(c1ccc(F)cc1F)C(F)(F)c1ccc(-c2cccc(OC(F)(F)F)c2)cn1 (stereo not drawn) [Example 6, 2-(2,4-Difluorophenyl)-1,1-difluoro-3-(1H-tetrazol-1-yl)-1-(5-(3-(trifluoromethoxy)phenyl)pyridin-2-yl)propan-2-ol]
< 0.5 | OC(Cn1cnnn1)(c1ccc(F)cc1F)C(F)(F)c1ccc(-c2ccc(OC(F)(F)F)cc2)cn1 (stereo not drawn) [Example 7, 2-(2,4-Difluorophenyl)-1,1-difluoro-3-(1H-tetrazol-1-yl)-1-(5-(4-(trifluoromethoxy)phenyl)pyridin-2-yl) propan-2-ol]
< 0.5 | OC(Cn1cnnn1)(c1ccc(F)cc1F)C(F)(F)c1ccc(-c2cccc(Cl)c2)cn1 (stereo not drawn) [Example 8, 1-(5-(3-Chlorophenyl)pyridin-2-yl)-2-(2,4-difluorophenyl)-1,1-difluoro-3-(1H-tetrazol-1-yl)propan-2-ol]
< 0.5 | OC(Cn1cnnn1)(c1ccc(F)cc1F)C(F)(F)c1ccc(-c2ccc(Cl)cc2)cn1 (stereo not drawn) [Example 9, 1-(5-(4-Chlorophenyl)pyridin-2-yl)-2-(2,4-difluorophenyl)-1,1-difluoro-3-(1H-tetrazol-1-yl)propan-2-ol]
< 0.5 | OC(Cn1cnnn1)(c1ccc(F)cc1F)C(F)(F)c1ccc(-c2cc(F)ccc2F)cn1 (stereo not drawn) [Example 10, 2-(2,4-Difluorophenyl)-1-(5-(2,5-difluorophenyl)pyridin-2-yl)-1,1-difluoro-3-(1H-tetrazol-1-yl)propan-2-ol]
< 0.5 | OC(Cn1cncn1)(c1ccc(F)cc1F)C(F)(F)c1ccc(-c2ccc(F)cc2)cn1 (stereo not drawn) [Example 16, 2-(2,4-Difluorophenyl)-1,1-difluoro-1-(5-(4-fluorophenyl)pyridin-2-yl)-3-(1H-1,2,4-triazol-1-yl)propan-2-ol]
< 0.5 | OC(Cn1cncn1)(c1ccc(F)cc1F)C(F)(F)c1ccc(-c2ccc(OC(F)(F)F)cc2)cn1 (stereo not drawn) [Example 18, 2-(2,4-Difluorophenyl)-1,1-difluoro-3-(1H-1,2,4-triazol-1-yl)-1-(5-(4-(trifluoromethoxy)phenyl)pyridin-2-yl) propan-2-ol]
> 4 | OC(Cn1ncnn1)(c1ccc(F)cc1F)C(F)(F)c1ccc(-c2ccc(OCC(F)(F)F)cc2)cn1 (stereo not drawn) [Example 20, 2-(2,4-Difluorophenyl)-1,1-difluoro-3-(2H-tetrazol-1-yl)-1-(5-(4-(2,2,2-trifluoroethoxy)phenyl)pyridin-2-yl)propan-2-ol]
1.5 to 4 (≈ 3.35 to 8.94 µM) | OC(Cn1ncnn1)(c1ccc(F)cc1F)C(F)(F)c1ccc(-c2cccc(F)c2)cn1 (stereo not drawn) [Example 21]
1.5 to 4 (≈ 3.02 to 8.04 µM) | OC(Cn1ncnn1)(c1ccc(F)cc1F)C(F)(F)c1ccc(-c2ccc(C(F)(F)F)cc2)cn1 (stereo not drawn) [Example 22]
< 0.5 | Oc1ccc(-c2ccc(C(F)(F)C(O)(Cn3cnnn3)c3ccc(F)cc3F)nc2)cc1 (stereo not drawn) [Example 23, 4-(6-(2-(2,4-Difluorophenyl)-1,1-difluoro-2-hydroxy-3-(1H-tetrazol-1-yl)propyl)pyridin-3-yl)phenol]
< 0.5 | CC(C)c1cccc(-c2ccc(C(F)(F)C(O)(Cn3cnnn3)c3ccc(F)cc3F)nc2)c1 (stereo not drawn) [Example 24, 2-(2,4-Difluorophenyl)-1,1-difluoro-1-(5-(3-isopropylphenyl)pyridin-2-yl)-3-(1H-tetrazol-1-yl)propan-2-ol]
< 0.5 | OC(Cn1cnnn1)(c1ccc(F)cc1F)C(F)(F)c1ccc(-c2ccc(F)c(F)c2)cn1 (stereo not drawn) [Example 25, 2-(2,4-Difluorophenyl)-1-(5-(3,4-difluorophenyl)pyridin-2-yl)-1,1-difluoro-3-(1H-tetrazol-1-yl)propan-2-ol]
< 0.5 | OC(Cn1cnnn1)(c1ccc(F)cc1F)C(F)(F)c1ccc(-c2cccc(OC(F)F)c2)cn1 (stereo not drawn) [Example 26, 1-(5-(3-(Difluoromethoxy)phenyl)pyridin-2-yl)-2-(2,4-difluorophenyl)-1,1-difluoro-3-(1H-tetrazol-1-yl)propan-2-ol]
< 0.5 | OC(Cn1cnnn1)(c1ccc(F)cc1F)C(F)(F)c1ccc(-c2ccc(SC(F)(F)F)cc2)cn1 (stereo not drawn) [Example 27, 2-(2,4-Difluorophenyl)-1,1-difluoro-3-(1H-tetrazol-1-yl)-1-(5-(4-((trifluoromethyl)thio)phenyl)pyridin-2-yl)propan-2-ol]
< 0.5 | OC(Cn1cnnn1)(c1ccc(F)cc1F)C(F)(F)c1ccc(-c2ccc(Cl)c(F)c2)cn1 (stereo not drawn) [Example 29, 1-(5-(4-Chloro-3-fluorophenyl)pyridin-2-yl)-2-(2,4-difluorophenyl)-1,1-difluoro-3-(1H-tetrazol-1-yl)propan-2-ol]
< 0.5 | Oc1cccc(-c2ccc(C(F)(F)C(O)(Cn3cnnn3)c3ccc(F)cc3F)nc2)c1 (stereo not drawn) [Example 30, 3-(6-(2-(2,4-Difluorophenyl)-1,1-difluoro-2-hydroxy-3-(1H-tetrazol-1-yl)propyl)pyridin-3-yl)phenol]
< 0.5 | OC(Cn1cnnn1)(c1ccc(F)cc1F)C(F)(F)c1ccc(-c2cccc(C(F)(F)F)c2)cn1 (stereo not drawn) [Example 31, 2-(2,4-Difluorophenyl)-1,1-difluoro-3-(1H-tetrazol-1-yl)-1-(5-(3-(trifluoromethyl)phenyl)pyridin-2-yl)propan-2-ol]
< 0.5 | O=[N+]([O-])c1ccc(-c2ccc(C(F)(F)C(O)(Cn3cnnn3)c3ccc(F)cc3F)nc2)cc1 (stereo not drawn) [Example 32, 2-(2,4-Difluorophenyl)-1,1-difluoro-1-(5-(4-nitrophenyl)pyridin-2-yl)-3-(1H-tetrazol-1-yl)propan-2-ol]
< 0.5 | O=C(c1ccc(-c2ccc(C(F)(F)C(O)(Cn3cnnn3)c3ccc(F)cc3F)nc2)cc1)C(F)(F)F (stereo not drawn) [Example 33, 1-(4-(6-(2-(2,4-Difluorophenyl)-1,1-difluoro-2-hydroxy-3-(1H-tetrazol-1-yl)propyl)pyridin-3-yl)phenyl)-2,2,2-trifluoroethanone]
< 0.5 | OC(Cn1cnnn1)(c1ccc(Cl)cc1F)C(F)(F)c1ccc(-c2ccc(OC(F)(F)F)cc2)cn1 (stereo not drawn) [Example 34, 2-(4-Chloro-2-fluorophenyl)-1,1-difluoro-3-(1H-tetrazol-1-yl)-1-(5-(4-(trifluoromethoxy)phenyl)pyridin-2-yl)propan-2-ol]
< 0.5 | OC(Cn1cnnn1)(c1ccc(F)cc1F)C(F)(F)c1ccc(-c2ccccc2)cn1 (stereo not drawn) [Example 35, 2-(2,4-Difluorophenyl)-1,1-difluoro-1-(5-phenylpyridin-2-yl)-3-(1H-tetrazol-1-yl)propan-2-ol]
< 0.5 | OC(Cn1cnnn1)(c1ccc(F)cc1F)C(F)(F)c1ccc(-c2ccc(N3CCOCC3)cc2)cn1 (stereo not drawn) [Example 36, 2-(2,4-Difluorophenyl)-1,1-difluoro-1-(5-(4-morpholinophenyl)pyridin-2-yl)-3-(1H-tetrazol-1-yl)propan-2-ol]
< 0.5 | O=C(Nc1ccc(-c2ccc(C(F)(F)C(O)(Cn3cnnn3)c3ccc(F)cc3F)nc2)cc1)C(F)(F)F (stereo not drawn) [Example 37, N-(4-(6-(2-(2,4-Difluorophenyl)-1,1-difluoro-2-hydroxy-3-(1H-tetrazol-1-yl)propyl)pyridin-3-yl)phenyl)-2,2,2-trifluoroacetamide]

Compound | MIC [µg/mL]
CC(C)(C)Oc1ccc(-c2ccc(C(F)(F)C(O)(Cn3cnnn3)c3ccc(F)cc3F)nc2)cc1 (stereo not drawn) [Example 28, 1-(5-(4-(tert-Butoxy)phenyl)pyridin-2-yl)-2-(2,4-difluorophenyl)-1,1-difluoro-3-(1H-tetrazol-1-yl)propan-2-ol] | < 0.5

Same assay, conditions: Candida albicans, read-out: Candida MIC Rating

Compound | MIC [µg/mL]
OC(Cn1cnnn1)(c1ccc(F)cc1F)C(F)(F)c1ccc(-c2ccc(OCC(F)(F)C(F)(F)F)cc2)cn1 (stereo not drawn) [Example 12, 2-(2,4-Difluorophenyl)-1,1-difluoro-1-(5-(4-(2,2,3,3,3-pentafluoropropoxy)phenyl)pyridin-2-yl)-3-(1H-tetrazol-1-yl)propan-2-ol] | < 0.5
OC(Cc1cc[nH]n1)(c1ccc(F)cc1F)C(F)(F)c1ccc(-c2ccc(OC(F)(F)F)cc2)cn1 (stereo not drawn) [Example 15, 2-(2,4-Difluorophenyl)-1,1-difluoro-3-(1H-pyrazol-3-yl)-1-(5-(4-(trifluoromethoxy)phenyl)pyridin-2-yl)propan-2-ol] | < 0.5

Same assay, conditions: rating scale

Candida MIC Rating | Compound
A (≤0.5) | OC(Cn1cnnn1)(c1ccc(F)cc1F)C(F)(F)c1ccc(-c2ccc(OCC(F)(F)F)cc2)cn1 (stereo not drawn) [Example 11, 2-(2,4-Difluorophenyl)-1,1-difluoro-3-(1H-tetrazol-1-yl)-1-(5-(4-(2,2,2-trifluoroethoxy)phenyl)pyridin-2-yl)propan-2-ol]
